Measurements as given in patent US20220096484A1, “METHODS AND COMPOSITIONS FOR TREATING CANCER BY TARGETING FATP2 AND MYELOID DERIVED SUPPRESSOR CELLS” (The Wistar Institute of Anatomy and Biology, priority 2019, published 2022).

Key:
[1] = test system: PMN differentiated from HPCs; assay: PMN generated from HPC in the presence of GM-CSF and arachidonic acid; format: cell-based, mouse
Procedure: Single cells suspensions from spleen and tumors were prepared as described above. Then cells were stained and sorted on BD FACS Aria BD (Biosciences). PMN-MDSC)(CD45^+ CD11b^+Ly6G^+Ly6C^lo and M-MDSC (CD45^+ CD11b^+Ly6G^−Ly6C^hi) were plated in U-bottom 96-well plates (3 replicates) in RPMI with 10% FBS and co-cultured at different ratios with splenocytes from Pmel or OT-1 transgenic mice in the presence of cognate peptides: OT-1 (SIINFEKL; 0.1 ng/ml), Pmel (EGSRNQDWL; 0.1 μg/ml). After 48 h, cells were incubated with [^3H]-thymidine (PerkinElmer) for 16-18 h. Proliferation was measured by using TopCount NXT instrument (PerkinElmer).
RNA was extracted using Total RNA Kit according to manufacturer's instructions. DNase digestion was performed cDNA was generated with High-Capacity cDNA Reverse Transcription Kit (Applied Biosystems, Foster City, Calif., USA). qRT-PCR was performed using Power SYBR Green PCR Master Mix (Applied Biosystems) in 96- or 384 well plates. Plates were read with ABI 7900 (Applied Biosystems).
Mouse neutrophils were generated from enriched bone marrow hematopoietic progenitor cells (HPCs) with 20 ng/ml of GM-CSF. Briefly, HPCs were isolated from mouse BM by using Lineage depletion kit (Miltenyi), according to manufacturer's instructions. Cells were seeded at 25000 cell/ml in 24 well plates and GM-CSF (20 ng/ml), 20% v/v TES or arachidonic acid (10 μM) were added at day 0 and day 3. At day 5, Ly6G positive neutrophils were isolated by using anti-Ly6G biotin (Miltenyi) and streptavidin beads (Miltenyi), according to manufacturer's instructions.
HPCs were isolated from mouse BM by using Lineage depletion kit (Miltenyi), according to manufacturer's instructions. HPC were resuspended in serum-free medium (SFM) containing lentiviral vectors followed by centrifugation of the plate at 1000 rpm for 20 min at 25° C. Fresh media supplemented with GM-CSF (20 ng/ml) was then added and cells were seeded at 25000 cell/ml in 24 well plates. At day 3, GM-CSF and 20% v/v TES were added to the culture. At day 5, cells were collected, stained with PE conjugated anti mouse Ly6G, APC conjugated anti mouse Ly6C and BV421 conjugated anti-mouse CD11b, and GFP^− and GFP^+Ly6G^+ cells were sorted on BD FACS Melody (BD Biosciences). GFP^− and GFP^+Ly6G^+ cells were seeded at 2.000.000 cells/ml in presence of GM-CSF and TES and incubated for further 24 hours. Pellets and supernatants were collected for further analysis. PGE2 concentration in supernatants was measured by using PGE2 ELISA KIT (Invitrogen), according to manufacturer's instructions.

STAT5 / FATP2 in PMN = assay: Mouse bone marrow PMN treated with GM-CSF (pSTAT5 flow cytometry, FATP2 Western blot); format: cell-based
Procedure: Cells were lysed in RIPA buffer (Sigma-Aldrich) in presence of protease inhibitor cocktail (Sigma-Aldrich), sonicated and stored at −80° C. Whole cell lysates were prepared and subjected to 10% SDS-PAGE and transferred to PVDF membrane. The membranes were probed overnight at 4° C. with the antibodies specific for FATP2 (SLC27A2) (ThermoFisher), ACTIN, GAPDH, STAT5 (Cell Signaling Technology). Membranes were washed and incubated for 1 h at room temperature with secondary antibody conjugated with peroxidase.
Slc27a2 promoter has a binding site for the transcription factor STAT5 (http://jaspar.genereg.net). STAT5 can be activated by GM-CSF, which plays a critical role in myelopoiesis and expansion of MDSC^23. To explore whether GM-CSF might control slc27a2 expression through STAT5 activation we treated PMN isolated from BM of tumor free mice with GM-CSF for 2 hrs. […] To confirm the role of STAT5 in controlling the expression of slc27a2 in PMN, we crossed Stat5″ mice with S100A8-cre mice to target the deletion of Stat5 to PMN. In the absence of Stat5 in PMN, the tumor growth was slower than in control mice (FIG. 11I). This was associated with lower expression of slc27a2 in PMN (FIG. 11J).

[2] = test system: pSTAT5 / FATP2 in human PMNs; assay: Human PMN from healthy donors treated with GM-CSF (pSTAT5, FATP2); format: cell-based; conditions: human PMNs from blood of healthy donors
Text: FIG. 12A, Lipid accumulation (measured by BODIPY staining) in M-MDSCs isolated from the blood of patients with cancer or healthy individuals. Each circle indicates an individual. FIG. 12B, Amount of lipids (BODIPY staining) in M-MDSCs from blood and tumor tissue of patients with cancer. Each circle indicates an individual (n=5). FIG. 12C, RNA-seq analysis of genes involved in lipid accumulation in human LOX1^+ PMN-MDSCs and LOX1^− PMNs (n=4). FIG. 12D, PTGES expression in LOX1^+ and LOX1^− PMNs from blood of patients with cancer. Fold change compared with LOX1^− PMNs (n=3). FIG. 12E, SLC27A2 expression in M-MDSCs and monocytes isolated from blood of patients with cancer and healthy donors, respectively. Each circle indicates an individual (n=4-6). Data are mean±s.d. FIG. 12F, pSTAT5 by flow cytometry at different time points, in human PMNs isolated from the blood of healthy donors and treated with different amounts of GM-CSF. FIG. 12G, FATP2 in PMNs isolated from blood of healthy donors and treated with GM-CSF. Representative of three independent experiments. FIG. 12H, Content of total phosphatidylethanolamine (PE) and arachidonoyl-containing phosphatidylethanolamine (AA-PE) in PMN-MDSCs isolated from patients with lung cancer (n=5) or healthy donors (n=4). Each circle indicates an individual. Data are mean±s.d. *P<0.05, **P<0.01, ***P<0.001, ****P<0.0001, unpaired two-sided Student's t-test. […]

[3] = PMN differentiated from HPC in the presence of AA

| Compound | expansion of PMN-MDSC ([1]; HPC with GM-CSF and AA (10 μM)) | suppression of antigen specific T cell responses by the generated PMN ([1]; HPC with GM-CSF and AA (10 μM)) | expression of nox2 [1, 3] | production of PGE2 [1, 3] | FATP2 protein (STAT5 / FATP2 in PMN; PMN from BM of tumor free mice, GM-CSF) | activation of STAT5 (pSTAT5) (STAT5 / FATP2 in PMN; PMN from BM of tumor free mice, GM-CSF for 2 hrs) | expression of FATP2 in Stat5 deficient PMN (STAT5 / FATP2 in PMN; Stat5 deficient PMN, GM-CSF) | FATP2 [2] | pSTAT5 [2] |
| --- | --- | --- | --- | --- | --- | --- | --- | --- | --- |
| CCCCC/C=C\C/C=C\C/C=C\C/C=C\CCCC(=O)O [AA, arachidonic acid] | favored the expansion of PMN-MDSC | suppressed antigen specific T cell responses | increased expression of nox2 | higher production of PGE2 |  |  |  |  |  |
| GM-CSF: cytokine that activates STAT5; plays a critical role in myelopoiesis and expansion of MDSC |  |  |  |  | up-regulation of FATP2 | dose-dependent activation of STAT5 | failed to increase the expression of FATP2 | up-regulated | up-regulated |
